# Measurements as given in ChEMBL document CHEMBL2074278, “Temocaprilat, a novel angiotensin-converting enzyme inhibitor, is excreted in bile via an ATP-dependent active transporter (cMOAT) that is deficient in Eisai hyperbilirubinemic mutant rats (EHBR)” (J Pharmacol Exp Ther, 1997).
# B1: ATP-binding cassette sub-family C member 2 (Rattus norvegicus) (protein)
# chain: MDKFCNSTFWDLSLLESPEADLPLCFEQTVLVWIPLGFLWLLAPWQLYSVYRSRTKRSSITKFYLAKQVFVVFLLILAAIDLSLALTEDTGQATVPPVRYTNPILYLCTWLLVLAVQHSRQWCVRKNSWFLSLFWILSVLCGVFQFQTLIRALLKDSKSNMAYSYLFFVSYGFQIVLLILTAFSGPSDSTQTPSVTASFLSSITFSWYDRTVLKGYKHPLTLEDVWDIDEGFKTRSVTSKFEAAMTKDLQKARQAFQRRLQKSQRKPEATLHGLNKKQSQSQDVLVLEEAKKKSEKTTKDYPKSWLIKSLFKTFHVVILKSFILKLIHDLLVFLNPQLLKLLIGFVKSSNSYVWFGYICAILMFAVTLIQSFCLQSYFQHCFVLGMCVRTTVMSSIYKKALTLSNLARKQYTIGETVNLMSVDSQKLMDATNYMQLVWSSVIQITLSIFFLWRELGPSILAGVGVMVLLIPVNGVLATKIRNIQVQNMKNKDKRLKIMNEILSGIKILKYFAWEPSFQEQVQGIRKKELKNLLRFGQLQSLLIFILQITPILVSVVTFSVYVLVDSANVLNAEKAFTSITLFNILRFPLSMLPMVTSSILQASVSVDRLERYLGGDDLDTSAIRRVSNFDKAVKFSEASFTWDPDLEATIQDVNLDIKPGQLVAVVGTVGSGKSSLVSAMLGEMENVHGHITIQGSTAYVPQQSWIQNGTIKDNILFGSEYNEKKYQQVLKACALLPDLEILPGGDMAEIGEKGINLSGGQKQRVSLARAAYQDADIYILDDPLSAVDAHVGKHIFNKVVGPNGLLAGKTRIFVTHGIHFLPQVDEIVVLGKGTILEKGSYRDLLDKKGVFARNWKTFMKHSGPEGEATVNNDSEAEDDDDGLIPTMEEIPEDAASLAMRRENSLRRTLSRSSRSSSRRGKSLKNSLKIKNVNVLKEKEKEVEGQKLIKKEFVETGKVKFSIYLKYLQAVGWWSILFIILFYGLNNVAFIGSNLWLSAWTSDSDNLNGTNNSSSHRDMRIGVFGALGLAQGICLLISTLWSIYACRNASKALHGQLLTNILRAPMRFFDTTPTGRIVNRFSGDISTVDDLLPQTLRSWMMCFFGIAGTLVMICMATPVFAIIIIPLSILYISVQVFYVATSRQLRRLDSVTKSPIYSHFSETVTGLPIIRAFEHQQRFLAWNEKQIDINQKCVFSWITSNRWLAIRLELVGNLVVFCSALLLVIYRKTLTGDVVGFVLSNALNITQTLNWLVRMTSEAETNIVAVERISEYINVENEAPWVTDKRPPADWPRHGEIQFNNYQVRYRPELDLVLKGITCNIKSGEKVGVVGRTGAGKSSLTNCLFRILESAGGQIIIDGIDVASIGLHDLRERLTIIPQDPILFSGSLRMNLDPFNKYSDEEVWRALELAHLRSFVSGLQLGLLSEVTEGGDNLSIGQRQLLCLGRAVLRKSKILVLDEATAAVDLETDSLIQTTIRKEFSQCTVITIAHRLHTIMDSDKIMVLDNGKIVEYGSPEELLSNRGSFYLMAKEAGIENVNHTEL
# What was measured:
# Assay type in all cases: functional, cell membranes, Sprague-Dawley, Bile canalicular membrane vesicle
# [1] = molecular target: T1, ATP-binding cassette sub-family C member 2 (Rattus norvegicus, UniProt Q63120); assay: TP_TRANSPORTER: inhibition of Temocaprilat uptake in bile canalicular membrane vesicles from SD rat
# [2] = molecular target: T1, ATP-binding cassette sub-family C member 2; assay: TP_TRANSPORTER: inhibition of DNP-SG uptake in bile canalicular membrane vesicles from SD rat
# [3] = substrate: O=C(O)CN1C[C@@H](c2cccs2)SC[C@H](N[C@@H](CCc2ccccc2)C(=O)O)C1=O; assay: TP_TRANSPORTER: uptake in bile canalicular membrane vesicles from SD rat
molecule,measurement,setting,value
N[C@@H](CCC(=O)N[C@H](CSc1ccc([N+](=O)[O-])cc1[N+](=O)[O-])C(=O)NCC(=O)O)C(=O)O,Ki,[1],25.8 µM
O=C(O)CN1C[C@@H](c2cccs2)SC[C@H](N[C@@H](CCc2ccccc2)C(=O)O)C1=O [TEMOCAPRILAT],Ki,[2],343 µM
B1,Km,[3],92.5 µM
